How the values were obtained:
[1] = test system: DNFB-treated WT and IL-33KO mice skin; test: DNFB chronic skin inflammation with SB431542; type: in vivo, mouse; settings: 22 days
Method: Four- to six-week-old male and female mice were shaved on their abdomen and sensitized to 50 μL 0.5% 1-Fluoro-2,4-dinitrobenzene (DNFB, Millipore Sigma, St. Louis, Mo., catalog no. 42085) dissolved in acetone plus olive oil at a 3:1 ratio (refer to as acetone). Two days after first sensitization, mice were re-sensitized to 50 μL 0.25% DNFB on their abdomen. After 5 days, mice were challenged with 100 μL 0.25% DNFB on their back skin, which was repeated three times per week for 22 days. The skin rash was monitored over the duration of the study.
(§1) To inhibit the TGF-β/SMAD signaling pathway (Mordasky Markell et al, 2010), mice were treated with 10 μM SB431542 (Millipore Sigma, catalog no. 301836-41-9) in 200 μL acetone or 200 μL acetone alone to their back skin twice a week. SB431542/acetone treatments were given in between TPA or DNFB doses.
Tissue samples were collected and fixed in 4% paraformaldehyde (Millipore Sigma, catalog no. P6148) overnight at 4° C. Next, tissues were dehydrated in ethanol, processed and embedded in paraffin. 5 μm sections paraffin-embedded tissues were placed on slides, deparaffinized and stained with H&E. For immunohistochemistry, antigen retrieval was performed in 500 μL of antigen unmasking solution (VECTOR Laboratories, Burlingame, Calif., catalog no. H3300) diluted in 50 mL water using Cuisinart pressure cooker for 20 min at high pressure. Slides were washed three times for three minutes each in 1×TBS with 0.025% Triton X-100. Sections were blocked with 1% bovine serum albumin (Thermo Fisher Scientific, catalog no. BP1600) and 5% goat serum (Millipore Sigma, catalog no. G9023) for 1 hour. Slides were stained overnight at 4° C. with a primary antibody diluted in TBS containing 1% BSA (Table A). The following day, slides were washed as above and incubated in 100 μL biotinylated secondary antibody (VECTOR Laboratories, catalog no. PK-6200) for 30 min. After washing, slides were incubated with 100 μL mixture of reagent A and B from VECTASTAIN Elite ABC universal kit Peroxidase (VECTOR Laboratories, catalog no. PK-6200) for 30 min. After washing, slides were incubated with 100 μL ImmPACT DAB chromogen stating (VECTOR Laboratories, catalog no. SK-4105) for a few minutes. Finally, slides were dehydrated in ethanol and xylene and mounted with a coverslip using 3 drops of mounting media. For immunofluorescence staining, rehydrated tissue sections were permeated with 1×PBS supplemented with 0.2% Triton X-100 for 5 min. Antigen retrieval was performed similar to immunohistochemistry. Slides were washed three times for three minutes each in 1×PBS with 0.1% TWEEN20. […] The number of positive cells was counted in randomly selected high power field (HPF, 200× magnification) images in a blinded manner by a trained investigator. […]

Pam212 cells [2] = test: Pam212 proliferation assay (CellTiter 96); type: cell-based, mouse; settings: 10 μM SB431542 for 3 hours; to the same degree as knocking down IL-33
Method: Pam212 cells were transfected with siIl33 (QIAGEN, catalog no. SI00870443) or siCon (QIAGEN, catalog no. 1022076) using Lipofectamine RNAiMax Transfection reagent (Thermo Fisher Scientific, catalog no. 13778075) according to the manufacturer's instructions. The following day, cells were divided into 96 well plates with a serial dilution of cells. The next day, the cells were treated with 5 nM of TGF-β (Cell Signaling Technology, catalog no. 5231LF) or 10 μM of SB431542 for 3 hours. After incubation, the proliferation assay was performed by CellTiter 96 Non-radioactive Cell proliferation assay (Promega, Madison, Wis., catalog no. G4001) according to the manufacturer's instructions. O.D was recorded as the measure of cell proliferation in each well. Absorbance (O.D) reading is directly proportional to the cell proliferation in each well.

Pam212 cells [3] = test: Ki67+ proliferating Pam212 cells; type: cell-based, mouse
[4] = test system: DMBA/TPA skin tumors in WT and K14-IL33tg,ST2KO mice; test: DMBA/TPA skin carcinogenesis protocol with SB431542; type: in vivo, mouse
Method: For DMBA/DNFB carcinogenesis protocol (Ameri et al., 2019), four- to six-week-old male and female mice were shaved on their abdomen and sensitized to 50 μL 0.5% DNFB. Two days later, mice were re-sensitized to 50 μL 0.25% DNFB on the abdomen. Five days later, mice were treated with […] 7,12-dimethylbenz(a)anthracene (DMBA, Millipore Sigma, catalog no. D3254) in 200 μL acetone on their back skin. After a week, mice were challenged with 100 μL 0.25% DNFB on their back skin, which was continued three times per week for 30 weeks at the dosage that maintained mild erythematous dermatitis in WT mice. Skin rash and tumor development were monitored and recorded weekly over the duration of the study. For DMBA/TPA carcinogenesis protocol, mice were treated with 6 μg 12-O-tetradecanoylphorbol-13-acetate (TPA, Millipore Sigma, catalog no. P1585) in 200 μL acetone instead of DNFB in DMBA/DNFB protocol without abdominal sensitization.
as §1
Tissue samples were collected and fixed in 4% paraformaldehyde (Millipore Sigma, catalog no. P6148) overnight at 4° C. Next, tissues were dehydrated in ethanol, processed and embedded in paraffin. 5 μm sections paraffin-embedded tissues were placed on slides, deparaffinized and stained with H&E. For immunohistochemistry, antigen retrieval was performed in 500 μL of antigen unmasking solution (VECTOR Laboratories, Burlingame, Calif., catalog no. H3300) diluted in 50 mL water using Cuisinart pressure cooker for 20 min at high pressure. Slides were washed three times for three minutes each in 1×TBS with 0.025% Triton X-100. Sections were blocked with 1% bovine serum albumin (Thermo Fisher Scientific, catalog no. BP1600) and 5% goat serum (Millipore Sigma, catalog no. G9023) for 1 hour. Slides were stained overnight at 4° C. with a primary antibody diluted in TBS containing 1% BSA (Table A). The following day, slides were washed as above and incubated in 100 μL biotinylated secondary antibody (VECTOR Laboratories, catalog no. PK-6200) for 30 min. After washing, slides were incubated with 100 μL mixture of reagent A and B from VECTASTAIN Elite ABC universal kit Peroxidase (VECTOR Laboratories, catalog no. PK-6200) for 30 min. After washing, slides were incubated with 100 μL ImmPACT DAB chromogen stating (VECTOR Laboratories, catalog no. SK-4105) for a few minutes. Finally, slides were dehydrated in ethanol and xylene and mounted with a coverslip using 3 drops of mounting media. For immunofluorescence staining, rehydrated tissue sections were permeated with 1×PBS supplemented with 0.2% Triton X-100 for 5 min. Antigen retrieval was performed similar to immunohistochemistry. Slides were washed three times for three minutes each in 1×PBS with 0.1% TWEEN20. Sections were blocked with 1% bovine serum albumin and 5% goat serum for 1 hour. The slides were stained overnight at 4° C. with primary antibodies (Table A). The following day, slides were washed as above and incubated for two hours at room temperature with secondary antibodies conjugated to fluorochromes (Table A). Next, slides were incubated with 1:2000 DAPI (Thermo Fisher Scientific, catalog no. D3571) for five minutes at room temperature, then washed as above. Slides were mounted with Prolong Gold Antifade Reagent (Thermo Fisher Scientific, catalog no. P36930). The number of positive cells was counted in randomly selected high power field (HPF, 200× magnification) images in a blinded manner by a trained investigator. Clinical samples were reviewed by a pathologist.

[5] = DMBA/TPA-treated K14-IL33tg,ST2KO skin, vs acetone-treated controls
[6] = K14-IL33tg,ST2KO mice, DMBA/TPA, vs acetone-treated
[7] = WT mice, 30-week DMBA/TPA treatment

In the case of NC(=O)c1ccc(-c2nc(-c3ccc4c(c3)OCO4)c(-c3ccccn3)[nH]2)cc1 [SB431542], the epidermal hyperplasia ([1]; DNFB-treated IL-33KO mice) is reported as “no impact”, the keratinocyte proliferation ([1]; DNFB-treated IL-33KO mice) is reported as “no impact” and the keratinocyte proliferation ([1]; DNFB-treated WT mice) is reported as “markedly decreased”. For the same compound, the epidermal hyperplasia ([1]; DNFB-treated WT mice, 10 μM SB431542 in 200 μL acetone twice a week) was “markedly decreased”, the Pam212 cell proliferation (Pam212 cells [2]) was “reduced” and the “Ki67+ proliferating cells” value (Pam212 cells [3]) was “significantly reduced”. The “apoptosis (cleaved caspase-3)” value ([4]; DMBA/TPA-treated K14-IL33tg,ST2KO skin) was “without impacting”, the “number of Ki67+ epidermal keratinocytes” value [4, 5] was “reduced” and the “number of p-SMAD2/3+ epidermal keratinocytes” value [4, 5] was “reduced”. The “number of skin tumors” value [4, 6] was “significantly fewer”, the tumor latency [4, 6] was “markedly increased” and the skin tumor size ([4]; K14-IL33tg,ST2KO mice, DMBA/TPA, vs controls) was “smaller”. For the same compound, the endpoint tumor volumes [4, 7] was “no significant impact”, the skin tumor onset [4, 7] was “no significant impact” and the “tumor numbers over time” value [4, 7] was “no significant impact”.

Reference: patent publication US20230255954A1, “INTERLEUKIN 33 (IL-33) INHIBITION FOR TREATMENT OF CANCER, FIBROSIS AND INFLAMMATION” (The General Hospital Corporation, priority 2020, published 2023)
